Source: patent US8901315B2, “Thienopyrazole derivative having PDE7 inhibitory activity” (Daiichi Sankyo Company, Limited, priority 2004, dated 2014)
Counter-ions that a name gives are not always drawn. Like-named read-outs stand apart in the source and are kept apart here.

Assays:
[1] = biological target: PDE 4 (phosphodiesterase IV); assay: PDE 4 inhibiting effect (3H-cAMP hydrolysis, PDE 4 active fraction from Balb/c mouse liver); format: biochemical; details: PDE 4 fraction from Balb/c mice liver, 0.064 μM cAMP, 2 hours at 25° C., read-out: PDE4 IC50
Protocol: Methods for Evaluating the PDE 4 Inhibiting Effect
The PDE 4 (phosphodiesterase IV) inhibiting effect of the compounds of the present invention was performed by the following method, which was modified assay method described in Biochemical. […] That is, the livers obtained from three Balb/c mice (male, 12 weeks: obtainable from CLEA Japan, Inc.) were suspended with 30 mL of buffer solution B [20 mM of bis-tris, 5 mM of 2-mercaptoethanol, 2 mM of benzamidine, 2 mM of EDTA, 0.1 mM of 4-(2-aminoethyl)benzenesulfonyl hydrochloride, 50 mM of sodium acetate; pH 6.5], then homogenized by Polytron® homogenizer. The homogenate were centrifuged under 25,000×G for 10 minutes at 4° C. The supernatant was separated and thus obtained supernatant was further centrifuged under 100,000×G for 60 minutes at 4° C., and then filtrated with 0.2 μm filter to obtain the soluble fraction. • (2) The obtained soluble fraction was filled in equilibrium DEAE sepharose column (1×10 cm) with buffer solution B, and phosphodiesterase fractions were eluted by 120 mL of buffer solution B with linear gradient from 0.05 to 1M sodium acetate concentration. 5 mL each of 24 eluents were collected, and each eluents were examined for cyclic AMP metabolic activities of phosphodiesterase. […] After the reaction, suspension of Sephadex®-QAE in 10 mM of HEPES-Na (pH 7.0) was added to the reaction mixture, and the mixture was left at rest for 5 minutes.

[2] = biological target: PDE 7 (phosphodiesterase VII) (Homo sapiens (Human), UniProt Q13946); assay: PDE 7 inhibiting effect (3H-cAMP hydrolysis, PDE 7 active fraction from MOLT-4 cells); format: biochemical; details: read-out: PDE7 IC50
Protocol: Methods for Evaluating the PDE 7 Inhibiting Effect
The PDE 7 (phosphodiesterase VII) inhibiting effect of the compounds of the present invention was performed by the following method, which was modified assay method described in Biochemical. Pharmacol. 48(6), 1219-1223 (1994). • (1) The active fraction of PDE 7 (phosphodiesterase VII) was obtained. That is, MOLT-4 (obtainable from ATCC as ATCC No. CRL-1582), which was cell line of human acute lymphoblastic lymphoma T cells, was incubated in RPMI1640 culture medium containing 10% fetal bovine serum to obtain 5×10^8 MOLT-4 cells. The cells were collected by centrifugation and suspended with 10 mL of buffer solution A [25 mM of tris-HCl, 5 mM of 2-mercaptoethanol, 2 mM of benzamidine, 2 mM of EDTA, 0.1 mM of 4-(2-aminoethyl)benzenesulfonyl hydrochloride; pH 7.5], then homogenized by Polytron® homogenizer. The homogenate were centrifuged under 25,000×G for 10 minutes at 4° C. The supernatant was separated and thus obtained supernatant was further centrifuged under 100,000×G for 60 minutes at 4° C., and then filtrated with 0.2 μm filter to obtain the soluble fraction. • (2) The obtained soluble fraction was filled in equilibrium HiTrap Q column (5 mL×2) with buffer solution A, and phosphodiesterase fractions were eluted by 300 mL of buffer solution A with linear gradient from 0 to 0.8 M NaCl concentration. 5 mL each of 60 eluents were collected, and each eluents were examined for cyclic AMP metabolic activities of phosphodiesterase. […] After the reaction, suspension of Sephadex®-QAE in 10 mM of HEPES-Na (pH 7.0) was added to the reaction mixture, and the mixture was left at rest for 5 minutes.

[3] = PDE 7 fraction from MOLT-4 cells, 0.064 μM cAMP, 10 μM rolipram, 2 hours at 25° C.

Sequence of PDE 7 (phosphodiesterase VII) (Q13946 whole entry): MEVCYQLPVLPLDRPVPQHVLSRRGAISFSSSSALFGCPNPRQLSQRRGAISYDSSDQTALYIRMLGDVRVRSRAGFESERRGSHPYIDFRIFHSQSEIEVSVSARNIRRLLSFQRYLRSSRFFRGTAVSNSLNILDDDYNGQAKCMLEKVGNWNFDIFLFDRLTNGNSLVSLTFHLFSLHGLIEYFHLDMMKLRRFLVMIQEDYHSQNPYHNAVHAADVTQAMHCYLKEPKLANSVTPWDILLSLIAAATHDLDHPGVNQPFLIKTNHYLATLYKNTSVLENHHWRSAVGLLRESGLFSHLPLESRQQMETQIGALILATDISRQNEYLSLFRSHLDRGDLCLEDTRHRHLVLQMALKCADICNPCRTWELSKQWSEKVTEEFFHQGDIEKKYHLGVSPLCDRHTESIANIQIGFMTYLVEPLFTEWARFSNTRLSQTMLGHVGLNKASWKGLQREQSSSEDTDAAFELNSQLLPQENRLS

| SMILES | IC50 ([1]; methanesulfonate) [nM] | IC50 ([2]; PDE 7 fraction from MOLT-4 cells, 0.064 μM cAMP, 10 μM rolipram, 2 hours at 25° C., methanesulfonate) [nM] | IC50 [1] [nM] | IC50 [2] [nM] | IC50 [2, 3] [nM] |
| --- | --- | --- | --- | --- | --- |
| Cc1nn(C2CCCCC2)c2sc(C(=O)Nc3ccc(N4CCN(C)CC4)cc3)cc12 [Example 107, 1-Cyclohexyl-3-methyl-N-[4-(4-methyl-1-piperazinyl)phenyl]-1H-thieno[2,3-c]pyrazole-5-carboxamide methanesulfonate] | 2000 | 17 |  |  |  |
| Cc1nn(C2CCCCC2)c2sc(C(=O)Nc3ccc(N4CCN(C)CC4)nc3)cc12 [Example 109, 1-Cyclohexyl-3-methyl-N-[6-(4-methyl-1-piperazinyl)-3-pyridinyl]-1H-thieno[2,3-c]pyrazole-5-carboxamide di-HCl salt] |  |  | 1000 | 15 |  |
| Cc1nn(C2CCCCC2)c2sc(C(=O)Nc3cccc(S(=O)(=O)N4CCN(C)CC4)c3)cc12 [Example 110, 1-Cyclohexyl-3-methyl-N-{3-[(4-methyl-piperazinyl)sulfonyl]-phenyl}-1H-thieno[2,3-c]pyrazole-5-carboxamide HCl salt] |  |  | 5500 |  | 75 |
| CNS(=O)(=O)c1cccc(NC(=O)c2cc3c(C)nn(C4CCCCC4)c3s2)c1 [Example 111, 1-Cyclohexyl-3-methyl-N-{3-[(methylamino)sulfonyl]phenyl}-1H-thieno[2,3-c]pyrazole-5-carboxamide] |  |  | > 30000 |  | 10 |
| Cc1nn(C2CCCCCC2)c2sc(C(=O)Nc3ccc(N4CCN(C)CC4)cc3)cc12 [Example 112] |  |  | 1200 |  | 8 |
| COc1cc(NC(=O)c2cc3c(C)nn(C4CCCCCC4)c3s2)ccc1NC(C)=O [Example 115, N-[4-(Acetylamino)-3-methoxyphenyl]-1-cycloheptyl-3-methyl-1H-thieno[2,3-c]pyrazole-5-carboxamide] |  |  | 1500 |  | 40 |
| Cc1nn(C2CCCCC2)c2sc(C(=O)Nc3ccc(N(C)CCO)c(F)c3)cc12 [Example 125, 1-Cyclohexyl-N-{3-fluoro-4-[(2-hydroxyethyl)(methyl)amino]phenyl}-3-methyl-1H-thieno[2,3-c]pyrazole-5-carboxamide HCl salt] |  |  | 4000 |  | 75 |
| Cc1nn(C2CCCCC2)c2sc(C(=O)NC3CCN(C4CCOCC4)CC3)cc12 [Example 135, 1-Cyclohexyl-3-methyl-N-(1-tetrahydro-2H-pyran-4-yl-4-piperidinyl)-1H-thieno[2,3-c]pyrazole-5-carboxamide] |  |  | 7400 |  | 53 |
| Cc1nn(C2CCCCC2)c2sc(C(=O)Nc3ccc(C4CCNCC4)cc3)cc12 [Example 141, 1-Cyclohexyl-3-methyl-N-[4-(4-piperidinyl)phenyl]-1H-thieno[2,3-c]pyrazole-5-carboxamide HCl salt] |  |  | 1600 |  | 22 |
| Cc1nn(C2CCCCC2)c2sc(C(=O)Nc3ccc(C4CCN(C)CC4)cc3)cc12 [Example 142, 1-Cyclohexyl-3-methyl-N-[4(1-methyl-4-piperidinyl)phenyl]-1H-thieno[2,3-c]pyrazole-5-carboxamide] |  |  | 2000 |  | 14 |
| COc1cc(NC(=O)c2cc3c(C)nn(C4CCCCC4)c3s2)ccc1C(=O)NCCO [Example 150, 1-Cyclohexyl-N-(4-{[(2-hydroxyethyl)amino]carbonyl}-3-methoxyphenyl)-3-methyl-1H-thieno[2,3-c]pyrazole-5-carboxamide] |  |  | 700 |  | 45 |
| CNC(=O)c1ccc(NC(=O)c2cc3c(C)nn(C4CCCCC4)c3s2)cc1OC [Example 152, 1-Cyclohexyl-N-{3-methoxy-4-[(methylamino)carbonyl]phenyl}-3-methyl-1H-thieno[2,3-c]pyrazole-5-carboxamide] |  |  | 3000 |  | 85 |
| Cc1nn(C2CCCCC2)c2sc(C(=O)Nc3ccc(N4CCN(C)CC4)c(F)c3)cc12 [Example 155, 1-Cyclohexyl-N-[3-fluoro-4-(4-methyl-1-piperazinyl)phenyl]-3-methyl-1H-thieno[2,3-c]pyrazole-5-carboxamide methanesulfonic acid salt] |  |  | 1500 |  | 10 |
| Cc1nn(C2CCCCC2)c2sc(C(=O)Nc3ccc(N4CCC(O)CC4)c(Cl)c3)cc12 [Example 162, N-[3-Chloro-4-(4-hydroxy-piperidinyl)phenyl]-1-cyclohexyl-3-methyl-1H-thieno[2,3-c]pyrazole-5-carboxamide] |  |  | 2000 |  | 70 |
| CNC1CCN(c2ccc(NC(=O)c3cc4c(C)nn(C5CCCCC5)c4s3)cc2F)CC1 [Example 163, 1-Cyclohexyl-N-{3-fluoro-4-[4-(methylamino)-1-piperidinyl]phenyl}-3-methyl-1H-thieno[2,3-c]pyrazole-5-carboxamide] |  |  | 900 |  | 14 |
| CNC1CCN(c2ccc(NC(=O)c3cc4c(C)nn(C5CCCCC5)c4s3)cc2Cl)CC1 [Example 165, N-{3-Chloro-4-[4-(methylamino)-1-piperidinyl]phenyl}-1-cyclohexyl-3-methyl-1H-thieno[2,3-c]pyrazole-5-carboxamide] |  |  | 650 |  | 20 |
| Cc1nn(C2CCCCC2)c2sc(C(=O)N[C@H]3CC[C@H](N4CCN(C)CC4)CC3)cc12 [Example 166, 1-Cyclohexyl-3-methyl-N-[trans-4-(4-methyl-1-piperazinyl)-cyclohexyl]-1H-thieno[2,3-c]pyrazole-5-carboxamide] |  |  | 1300 |  | 16 |
| Cc1nn(C2CCCCC2)c2sc(C(=O)N[C@H]3CC[C@H](N4CCCN(C)CC4)CC3)cc12 [Example 167, 1-Cyclohexyl-3-methyl-N-[trans-4-(4-methyl-1,4-diazepam-1-yl)-cyclohexyl]-1H-thieno[2,3-c]pyrazole-5-carboxamide] |  |  | 1000 |  | 15 |
| COC1CCN([C@H]2CC[C@H](NC(=O)c3cc4c(C)nn(C5CCCCC5)c4s3)CC2)CC1 [Example 168, 1-Cyclohexyl-N-[trans-4-(4-methoxyl-1-piperidinyl)cyclohexyl]-3-methyl-1H-thieno[2,3-c]pyrazole-5-carboxamide] |  |  | 1500 |  | 22 |
| Cc1nn(C2CCCCC2)c2sc(C(=O)N[C@H]3CC[C@H](N4CCCNCC4)CC3)cc12 [Example 170, 1-Cyclohexyl-N-[trans-4-(1,4-diazepam-1-yl)cyclohexyl]-3-methyl-1H-thieno[2,3-c]pyrazole-5-carboxamide] |  |  | 1300 |  | 22 |
| CC(=O)N1CCCN([C@H]2CC[C@H](NC(=O)c3cc4c(C)nn(C5CCCCC5)c4s3)CC2)CC1 [Example 171, N-[trans-4-(4-Acetyl-1,4-diazepam-1-yl)cyclohexyl]-1-cyclohexyl-3-methyl-1H-thieno[2,3-c]pyrazole-5-carboxamide] |  |  | 1700 |  | 37 |
| COCCN(C)[C@H]1CC[C@H](NC(=O)c2cc3c(C)nn(C4CCCCC4)c3s2)CC1 [Example 172, 1-cyclohexyl-N-{trans-4-[(2-methoxyethyl)(methyl)amino]-cyclohexyl}-3-methyl-1H-thieno[2,3-c]pyrazole-5-carboxamide] |  |  | 9400 |  | 48 |
| Cc1nn(C2CCCCC2)c2sc(C(=O)N[C@H]3CC[C@H](N4CCC(O)CC4)CC3)cc12 [Example 176, 1-Cyclohexyl-N-[trans-4-(4-hydroxy-1-piperidinyl)cyclohexyl]-3-methyl-1H-thieno[2,3-c]pyrazole-5-carboxamide] |  |  | 1700 |  | 20 |
| Cc1nn(C2CCCCC2)c2sc(C(=O)N[C@H]3CC[C@H](N4C[C@@H](C)O[C@@H](C)C4)CC3)cc12 [Example 177, 1-Cyclohexyl-N-{trans-4-[(2R,6S)-2,6-dimethylmorpholinyl]-cyclohexyl}-3-methyl-1H-thieno[2,3-c]pyrazole-5-carboxamide] |  |  | 1600 |  | 13 |
